Experimental data reported in patent publication US20080039508A1, “Treatment Of Tumours” (AQ+PLC, priority 2004, published 2008).

In the case of `Oc1cccc2cccnc12` [8-hydroxyquinoline], the “solubility in aqueous solution” value is reported as “generally insoluble or only poorly soluble”.
